Results reported in publication doi:10.1101/2024.08.19.608619, “Discovery of potent SARS-CoV-2 nsp3 macrodomain inhibitors uncovers lack of translation to cellular antiviral response” (bioRxiv, 2024).

Tests used:
NMDA = assay: In vitro CEREP profiling, NMDA (antagonist radioligand); format: binding
Text: (§1) Supplement media-1.zip/Safety_Panel_Profile.csv, table | column: perc_inhibition

CB1 (h) = target: T1, CB1 (h) (Homo sapiens, UniProt P21554); assay: In vitro CEREP profiling, CB1 (h) (agonist radioligand); format: binding; details: test compound 10 uM
T1 construct: purchased Eurofins Cerep (SafetyScreen44), recognised from the panel format
Text: as §1

delta (DOP) (h) = target: T2, delta (DOP) (h) (Homo sapiens, UniProt P41143); assay: In vitro CEREP profiling, delta (DOP) (h) (agonist radioligand); format: binding; details: test compound concentration 10 uM
T2 construct: purchased Eurofins Cerep (SafetyScreen44), recognised from the panel format
Text: as §1

CYP = CYP inhibition; format: in vitro ADME; details: In vitro CYP inhibition pooled; for potency: potency class in words
Text: Supplement media-1.zip/CYP_Inhibition.csv, table | column: ic50; potency

[1] = In vitro human hepatocyte stability; format: in vitro ADME
Text: Supplement media-1.zip/Hepatocyte_Stability.csv, table | column: clint; t_half

5-HT2A (h) = target: T3, 5-HT2A (h) (Homo sapiens, UniProt P28223); assay: In vitro CEREP profiling, 5-HT2A (h) (agonist radioligand); format: binding; details: test compound concentration 10 uM
T3 construct: purchased Eurofins Cerep (SafetyScreen44), recognised from the panel format
Text: as §1

MAO-A = target: T4, MAO-A (Rattus norvegicus, UniProt P21396); assay: In vitro CEREP profiling, MAO-A (antagonist radioligand); format: binding; details: test compound concentration 10 uM
T4 construct: purchased Eurofins Cerep (SafetyScreen44), recognised from the panel format
T4 sequence (P21396 1-526): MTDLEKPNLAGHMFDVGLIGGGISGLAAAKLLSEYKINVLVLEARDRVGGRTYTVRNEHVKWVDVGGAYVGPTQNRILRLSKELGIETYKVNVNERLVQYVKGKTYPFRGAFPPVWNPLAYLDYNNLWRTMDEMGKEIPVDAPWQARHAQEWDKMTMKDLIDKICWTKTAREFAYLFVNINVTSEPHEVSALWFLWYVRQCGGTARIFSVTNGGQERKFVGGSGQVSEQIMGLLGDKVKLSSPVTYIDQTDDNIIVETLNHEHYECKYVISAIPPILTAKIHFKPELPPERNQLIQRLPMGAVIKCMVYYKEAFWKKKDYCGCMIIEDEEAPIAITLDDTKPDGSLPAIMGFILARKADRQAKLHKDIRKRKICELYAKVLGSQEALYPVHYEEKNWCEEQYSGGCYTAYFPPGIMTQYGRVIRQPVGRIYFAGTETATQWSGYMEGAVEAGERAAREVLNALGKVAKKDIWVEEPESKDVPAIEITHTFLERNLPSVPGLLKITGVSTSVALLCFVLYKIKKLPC
Text: as §1

5-HT2B (h) = target: T5, 5-HT2B (h) (Homo sapiens, UniProt P41595); assay: In vitro CEREP profiling, 5-HT2B (h) (agonist radioligand); format: binding; details: test compound concentration 10 uM
T5 construct: purchased Eurofins Cerep (SafetyScreen44), recognised from the panel format
Text: as §1

GR (h) = target: T6, GR (h) (Homo sapiens, UniProt P04150); assay: In vitro CEREP profiling, GR (h) (agonist radioligand); format: binding; details: test compound concentration 10 uM
T6 construct: purchased Eurofins Cerep (SafetyScreen44), recognised from the panel format
T6 sequence (P04150 1-777): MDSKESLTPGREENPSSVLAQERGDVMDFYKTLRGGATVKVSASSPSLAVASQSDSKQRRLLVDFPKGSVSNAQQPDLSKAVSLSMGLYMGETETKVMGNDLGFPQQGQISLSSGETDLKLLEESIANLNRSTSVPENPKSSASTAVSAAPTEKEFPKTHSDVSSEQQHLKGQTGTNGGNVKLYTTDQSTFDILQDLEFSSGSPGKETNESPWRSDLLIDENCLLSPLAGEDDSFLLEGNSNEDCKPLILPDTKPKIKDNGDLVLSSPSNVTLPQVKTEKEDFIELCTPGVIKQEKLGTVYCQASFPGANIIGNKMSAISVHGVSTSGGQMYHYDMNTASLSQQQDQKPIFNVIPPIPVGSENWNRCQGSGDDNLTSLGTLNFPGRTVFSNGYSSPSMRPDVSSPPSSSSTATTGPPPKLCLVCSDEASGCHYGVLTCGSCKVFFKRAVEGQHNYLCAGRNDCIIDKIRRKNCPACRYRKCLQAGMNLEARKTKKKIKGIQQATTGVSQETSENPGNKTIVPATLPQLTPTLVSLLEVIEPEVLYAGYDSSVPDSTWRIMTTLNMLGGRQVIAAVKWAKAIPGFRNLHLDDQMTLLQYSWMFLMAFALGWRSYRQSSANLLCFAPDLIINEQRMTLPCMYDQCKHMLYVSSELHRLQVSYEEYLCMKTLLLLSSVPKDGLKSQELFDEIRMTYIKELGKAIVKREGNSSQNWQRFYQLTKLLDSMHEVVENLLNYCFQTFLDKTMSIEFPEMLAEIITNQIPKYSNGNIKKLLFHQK
Text: as §1

PDE4D2 (h) = target: T7, PDE4D2 (h) (Homo sapiens, UniProt Q08499); assay: In vitro CEREP profiling, PDE4D2 (h); format: biochemical; details: test compound concentration 10 uM; Enzyme and Cell-based assays
T7 construct: purchased Eurofins Cerep (SafetyScreen44), recognised from the panel format
Text: as §1

KOR receptor = target: T8, KOR receptor (Homo sapiens, UniProt P41145); assay: Eurofins CEREP panel, KOR; format: binding; details: kappa (h) (KOP) (agonist radioligand); test compound concentration 10 uM
T8 construct: purchased Eurofins Cerep (SafetyScreen44), recognised from the panel format

ETA (h) = target: T9, ETA (h) (Homo sapiens, UniProt P25101); assay: In vitro CEREP profiling, ETA (h) (agonist radioligand); format: binding; details: test compound 10 uM
T9 construct: purchased Eurofins Cerep (SafetyScreen44), recognised from the panel format
T9 sequence (P25101 21-427): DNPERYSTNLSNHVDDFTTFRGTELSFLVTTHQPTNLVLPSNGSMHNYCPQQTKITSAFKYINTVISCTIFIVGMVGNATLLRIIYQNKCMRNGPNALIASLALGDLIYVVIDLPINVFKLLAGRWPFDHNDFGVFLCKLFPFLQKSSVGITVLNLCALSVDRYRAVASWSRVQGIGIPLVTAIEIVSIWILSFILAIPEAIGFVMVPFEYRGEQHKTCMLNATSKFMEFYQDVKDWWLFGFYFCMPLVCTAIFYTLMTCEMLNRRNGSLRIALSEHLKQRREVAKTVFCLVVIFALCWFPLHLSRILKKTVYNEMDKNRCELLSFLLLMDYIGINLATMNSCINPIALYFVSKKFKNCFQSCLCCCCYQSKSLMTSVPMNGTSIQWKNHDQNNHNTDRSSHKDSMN
Text: as §1

T8 sequence (P41145 whole entry): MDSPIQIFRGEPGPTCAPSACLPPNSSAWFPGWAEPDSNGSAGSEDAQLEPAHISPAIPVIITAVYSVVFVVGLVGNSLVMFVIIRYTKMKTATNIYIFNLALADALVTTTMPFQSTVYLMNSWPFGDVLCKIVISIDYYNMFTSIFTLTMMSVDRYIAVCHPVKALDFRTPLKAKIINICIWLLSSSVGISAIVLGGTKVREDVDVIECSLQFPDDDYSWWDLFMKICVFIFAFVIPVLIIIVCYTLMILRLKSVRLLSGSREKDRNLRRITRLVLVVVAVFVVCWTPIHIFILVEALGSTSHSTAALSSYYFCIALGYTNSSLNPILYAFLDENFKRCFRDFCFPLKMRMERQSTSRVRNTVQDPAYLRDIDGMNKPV
T5 sequence (P41595 whole entry): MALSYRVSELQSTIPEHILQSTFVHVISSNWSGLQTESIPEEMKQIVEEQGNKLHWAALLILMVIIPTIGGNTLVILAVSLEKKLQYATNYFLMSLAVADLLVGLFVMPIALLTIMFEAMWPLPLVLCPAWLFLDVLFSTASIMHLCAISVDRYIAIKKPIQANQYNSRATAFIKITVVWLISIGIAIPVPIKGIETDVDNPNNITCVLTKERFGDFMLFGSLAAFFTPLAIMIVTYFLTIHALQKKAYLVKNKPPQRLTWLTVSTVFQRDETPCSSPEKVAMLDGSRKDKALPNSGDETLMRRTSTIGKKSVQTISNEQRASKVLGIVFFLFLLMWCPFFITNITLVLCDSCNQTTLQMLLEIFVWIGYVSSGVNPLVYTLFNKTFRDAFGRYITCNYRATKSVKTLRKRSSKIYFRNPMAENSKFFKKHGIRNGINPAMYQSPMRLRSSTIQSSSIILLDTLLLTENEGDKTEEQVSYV
T1 sequence (P21554 whole entry): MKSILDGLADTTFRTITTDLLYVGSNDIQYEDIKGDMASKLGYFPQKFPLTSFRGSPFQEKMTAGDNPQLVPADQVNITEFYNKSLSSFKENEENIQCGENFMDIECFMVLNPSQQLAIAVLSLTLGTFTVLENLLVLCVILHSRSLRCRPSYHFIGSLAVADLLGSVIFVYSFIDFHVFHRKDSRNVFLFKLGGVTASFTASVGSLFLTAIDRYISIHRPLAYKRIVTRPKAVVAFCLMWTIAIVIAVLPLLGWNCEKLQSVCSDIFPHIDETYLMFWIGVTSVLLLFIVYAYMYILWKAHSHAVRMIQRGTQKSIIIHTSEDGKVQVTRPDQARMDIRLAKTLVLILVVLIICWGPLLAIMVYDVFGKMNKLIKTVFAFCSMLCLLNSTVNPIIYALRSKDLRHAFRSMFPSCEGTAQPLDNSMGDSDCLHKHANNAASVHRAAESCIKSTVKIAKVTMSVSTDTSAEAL
T7 sequence (Q08499 303-809): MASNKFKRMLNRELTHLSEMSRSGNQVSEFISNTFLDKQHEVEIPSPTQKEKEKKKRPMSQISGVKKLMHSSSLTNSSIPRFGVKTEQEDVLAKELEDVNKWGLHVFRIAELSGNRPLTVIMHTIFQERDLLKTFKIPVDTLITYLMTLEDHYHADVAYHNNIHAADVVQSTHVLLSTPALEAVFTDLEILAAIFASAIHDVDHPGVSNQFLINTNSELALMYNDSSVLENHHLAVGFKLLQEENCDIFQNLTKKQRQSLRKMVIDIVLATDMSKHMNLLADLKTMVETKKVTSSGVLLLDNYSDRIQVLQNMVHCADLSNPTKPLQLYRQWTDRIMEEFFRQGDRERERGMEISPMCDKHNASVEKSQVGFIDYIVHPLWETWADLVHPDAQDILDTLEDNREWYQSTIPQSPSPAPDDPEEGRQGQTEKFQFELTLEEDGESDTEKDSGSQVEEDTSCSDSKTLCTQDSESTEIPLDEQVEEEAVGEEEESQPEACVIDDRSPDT
T3 sequence (P28223 whole entry): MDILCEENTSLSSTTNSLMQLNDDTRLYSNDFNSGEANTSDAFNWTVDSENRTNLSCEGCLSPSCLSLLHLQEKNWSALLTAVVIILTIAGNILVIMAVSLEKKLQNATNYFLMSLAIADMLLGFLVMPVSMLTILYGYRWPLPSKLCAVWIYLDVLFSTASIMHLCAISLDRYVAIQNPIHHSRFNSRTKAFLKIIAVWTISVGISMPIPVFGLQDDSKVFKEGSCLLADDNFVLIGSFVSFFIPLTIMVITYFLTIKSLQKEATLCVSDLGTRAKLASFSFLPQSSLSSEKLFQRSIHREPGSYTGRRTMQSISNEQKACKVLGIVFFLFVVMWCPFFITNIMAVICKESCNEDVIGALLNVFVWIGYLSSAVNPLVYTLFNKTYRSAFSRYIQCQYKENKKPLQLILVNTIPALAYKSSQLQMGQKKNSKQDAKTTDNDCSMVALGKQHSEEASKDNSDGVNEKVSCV
T2 sequence (P41143 whole entry): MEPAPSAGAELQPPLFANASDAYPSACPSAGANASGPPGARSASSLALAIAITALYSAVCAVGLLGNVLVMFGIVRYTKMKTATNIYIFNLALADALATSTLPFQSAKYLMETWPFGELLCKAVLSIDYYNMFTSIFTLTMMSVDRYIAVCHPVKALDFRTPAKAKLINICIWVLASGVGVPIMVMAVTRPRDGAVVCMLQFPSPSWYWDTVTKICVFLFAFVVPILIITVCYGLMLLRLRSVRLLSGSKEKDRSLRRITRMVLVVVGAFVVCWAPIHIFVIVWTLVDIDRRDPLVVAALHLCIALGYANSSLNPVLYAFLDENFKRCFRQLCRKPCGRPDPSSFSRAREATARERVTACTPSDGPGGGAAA

| Compound | perc_inhibition (% inhibition of the binding of a ligand specific for each target) (CB1 (h)) [%] | perc_inhibition (% inhibition of the binding of a ligand specific for each target) (delta (DOP) (h)) [%] | IC50 (CYP; isoform 1A2) [µM] | potency (CYP; isoform 1A2) | IC50 (CYP; isoform 2C9) [µM] | potency (CYP; isoform 2C9) | IC50 (CYP; isoform 2C19) [µM] | potency (CYP; isoform 2C19) | IC50 (CYP; isoform 2D6) [µM] | potency (CYP; isoform 2D6) | IC50 (CYP; isoform 3A4) [µM] | potency (CYP; isoform 3A4) | clint [1] [uL/min/1E6 cells] | t_half [1] [min] | perc_inhibition (% inhibition of the binding of a ligand specific for each target) (5-HT2A (h)) [%] | perc_inhibition (% inhibition of the binding of a ligand specific for each target) (MAO-A) [%] | perc_inhibition (% inhibition of the binding of a ligand specific for each target) (5-HT2B (h)) [%] | perc_inhibition (% inhibition of the binding of a ligand specific for each target) (GR (h)) [%] | perc_inhibition: % inhibition of control enzyme activity, PDE4D2 (h) (PDE4D2 (h)) [%] | perc_inhibition (% inhibition of the binding of a ligand specific for each target) (KOR receptor) [%] | other results |
| --- | --- | --- | --- | --- | --- | --- | --- | --- | --- | --- | --- | --- | --- | --- | --- | --- | --- | --- | --- | --- | --- |
| Cn1ncc(-c2cc3c(N[C@@H](c4ccc5c(n4)OCCO5)C(C)(C)C)ncnc3[nH]2)c1C#N [ASAP-0011221] | 33 | 15 | > 50 | weak | 42.6 | weak | > 50 | weak | 20.5 | weak | 8.79 | moderate | 171.0 | 4.04 | -2 | 10 | -5 | 28 | 20 | 33 | perc_inhibition (% inhibition of the binding of a ligand specific for each target) (NMDA; test compound concentration 10 uM): 11%; perc_inhibition (% inhibition of the binding of a ligand specific for each target) (ETA (h)): 9% |
| C[C@H](C(=O)O)[C@@H](NC(=O)c1ncnc2[nH]ccc12)c1ccc(Br)cc1 [ASAP-0014722] | -11 | -24 | > 50 | weak | 5.14 | moderate | > 50 | weak | > 50 | weak | > 50 | weak | < 3.0 | > 231.0 | 1 | -1 | -4 | 3 | 30 | 2 | perc_inhibition (% inhibition of the binding of a ligand specific for each target) (NMDA; test compound 10 uM): 4%; perc_inhibition (% inhibition of the binding of a ligand specific for each target) (ETA (h)): -2% |
| COc1ccc([C@H](Cc2nnn[nH]2)NC(=O)c2ncnc3[nH]ccc23)cc1 [ASAP-0015381] | -8 | -30 | > 50 | weak | 31.2 | weak | > 50 | weak | > 50 | weak | 25.4 | weak | < 3.0 | > 231.0 | -4 | 0 | -33 | 1 | 41 | 2 | perc_inhibition (% inhibition of the binding of a ligand specific for each target) (NMDA; test compound 10 uM): 9%; perc_inhibition (% inhibition of the binding of a ligand specific for each target) (ETA (h)): 2% |
